Data reported in patent publication US11439619B2, “Phosphaplatin compounds as immuno-modulatory agents and therapeutic uses thereof” (Phosplatin Therapeutics Inc., priority 2017, dated 2022).

Legend:
[1] = system: broadly platinum-resistant cell panel; assay: IC50 values in a broadly platinum-resistant cell panel; format: cell-based
Excerpt: (§1) A high degree of correlation was observed between cis and carbo activity, but not between those agents and PT-112. A correlation between PT-112 and oxali was also observed, which led to investigation of cellular targets and mechanisms not shared by these two agents. […] These effects comprise the release of HMGB1 and ATP, the cell surface exposure of calreticulin (CRT), and the suppression of STATS.

[2] = system: HCT116 colon cancer model; assay: phosphorylation of H2AX and induction of Ku70 in HCT116 colon cancer model; format: cell-based; details: versus oxali at equipotent concentrations
Excerpt: as §1

[3] = system: nucleotide excision repair (NER)-deficient HCT116 cells and their isogenic NER-proficient counterparts; assay: potency in NER-deficient versus NER-proficient HCT116 cells; format: cell-based
Excerpt: as §1

p53 and MDM2 = assay: impact on p53 and MDM2 levels; format: cell-based
Excerpt: as §1

[4] = system: immunogenic cell death (ICD); assay: effects indicative of ICD induction versus oxali; format: cell-based; details: compared with oxali
Excerpt: as §1

cancer cell models = assay: Pt accumulation in DNA and whole cell extracts of cancer cell models; format: cell-based; details: previous work; compared with cisplatin or oxaliplatin exposure
Excerpt: PT-112 is a new chemical entity under clinical development in the US and the People's Republic of China, designed to minimize particular toxicities associated with traditional platinum agents and drug resistance stemming from DNA damage and repair. As a pyrophosphate-conjugated Pt-containing anti-neoplastic therapeutic, PT-112 differs from platinum therapies in both mechanism and toxicity. […] Nonetheless, PT-112 has potent cytotoxic activity in in vitro systems, implying a different spectrum of targets for PT-112 in comparison to traditional platinum compounds. We explored the activity and mechanism of action of PT-112 by investigating impacts on cancer related proteins and pathways, including those connected to immunogenic cell death (ICD), as well as how PT-112 potency is affected by DNA repair pathways. In addition, PT-112 anticancer activity, pharmacokinetics (PK), and toxicity were measured in multiple in vivo systems.

[5] = system: GXF97 gastric patient-derived xenograft; assay: GXF97 gastric patient-derived xenograft (PDX) model; format: in vivo; details: higher doses not tolerated by all mice, data not shown
CXF280 colon PDX = CXF280 colon PDX model; format: in vivo
[6] = system: PANC1 pancreatic cancer model; assay: PANC1 pancreatic cancer model; format: in vivo
[7] = set-up: species or system rats; details: rat, in vivo
Excerpt: Importantly, Pt in plasma, but not present in the PUF, is believed to be protein-bound and not bioavailable for therapeutic benefit.

[8] = renal function and tolerability in rats; format: in vivo
[9] = mouse model of acute neurotoxicity (cold hypersensitivity); format: in vivo; details: single dose, PT-112 at twice the molar concentration of oxali
[10] = chronic neuropathy indicators after repeat doses over 4 weeks (DRG Pt, NCV); format: in vivo
[11] = system: HCT116 colorectal cancer cell line; assay: HMGB1 release from HCT116 cells, ELISA; format: cell-based; details: HCT116, IC50 concentrations, 48 hours
Description: FIG. 1 illustrates the release of high mobility group box 1 (HMGB1) from cells treated with PT-112. HMGB1 in the media of cells after 48 hours of drug treatment was measured via ELISA. HMGB1 release is involved in ICD and antigen presentation to dendritic cells. Error bars indicate 1 SEM, and p values were generated using two-tailed t-tests.
(§2) Two such DAMPs are high mobility group box 1 (HMGB1) and calreticulin (CRT). HMGB1 is released from dying cells during ICD, whereas CRT migrates from the endoplasmic reticulum to the cell surface during ICD. To test if PT-112 exposure results in these events that are considered hallmarks of ICD, in vitro experiments using the HCT116 colorectal cancer cell line were conducted.
Subsequently, HMGB1 in the media of the cells was measured via ELISA.

[12] = system: HCT116 colorectal cancer cell line; assay: calreticulin (CRT) cell surface exposure in HCT116 cells, flow cytometry; format: cell-based; details: HCT116, IC50 concentrations, 48 hours
Description: FIG. 2 illustrates the cell surface exposure of calreticulin (CRT) from cells treated with PT-112. CRT cell surface expression was measured via flow cytometry after 48 hours of drug treatment. A peak present to the right of the main peak indicates cells staining positive for CRT, a hallmark of ICD and an indicator of phagocyte targeting.
as §2
Cells were then stained with an anti-CRT antibody, and positive staining was detected via flow cytometry.

murine TSA cells = assay: ATP release from TSA cells, luminometric assay; format: cell-based; details: 48 hours, two concentrations
Description: FIG. 3 illustrates the release of adenosine triphosphate (ATP) from cells treated with PT-112. ATP in the media of cells after 48 hours of drug treatment was measured via a luminometric assay. PT-112 was tested in two concentrations, as was cisplatin (a negative control for ICD), in addition to a single concentration of mitoxantrone (a positive ICD control) and an untreated negative control sample. ATP release is indicative of ICD and involved in recruitment and activation of antigen-presenting cells.
PT-112 was also tested for its ability to release the DAMP ATP (FIG. 3), which is involved in the recruitment and activation of antigen-presenting cells. Here, murine TSA cells were exposed to either PT-112 at two different concentrations, cisplatin (a negative control for ICD, also at two concentrations), mitoxantrone (a positive ICD control), or no drug control for 48 hours. Subsequently, ATP in the media was measured via a luminometric assay. […] This is again indicative of PT-112 robustly causing ICD.

CT26 cells = assay: FACS analysis of tumor tissue, CT26 allograft; format: in vivo, mice
Excerpt: (§3) FIG. 6 illustrates fluorescence-activated cell sorting (FACS) analysis of tumor biopsies from a mouse allograft experiment, whereby immune-competent mice were implanted with CT26 cells and were subsequently randomized into control, PT-112, anti-PD-L antibody, or combination treatment. Bars are normalized to the control group.
FIG. 7 illustrates the effect of various treatments on the ratios of different cell populations from tumor biopsies in a mouse allograft experiment using the CT26 cell line, where mice were randomized into vehicle control, PT-112, anti-PD-L antibody, and combination treatment groups. PT-112 treatment groups had large increases in the ratio of immunogenic to immunosuppressive cell types, indicating PT-112 induces a more immunogenic tumor microenvironment.
Additionally, tumor tissue was removed from additional treated mice and analyzed via FACS for differences in white blood cell populations.

MC38 cells = assay: FACS analysis of tumor tissue, MC38 allograft; format: in vivo, mice
Excerpt: as §3, with “8” for “6”, “MC38” for “CT26”, “anti-PD-L1” for “anti-PD-L”
FIG. 9 illustrates the effect of various treatments on the ratios of different cell populations from tumor biopsies in a mouse allograft experiment using the MC38 cell line, where mice were randomized into vehicle control, PT-112, anti-PD-L1 antibody, and combination treatment groups. […]
To better understand the effects of the different treatments on T cell populations, additional immuno-competent mice were implanted with MC38 cells and were subsequently randomized into control, PT-112, anti-PD-L1 antibody, or combination treatment arms (n=5). After 2 weeks of treatment (PT-112 @ 90 mg/kg QW and PD-L1 @ 10 mg/kg BIW), tumor tissue was removed and analyzed via FACS for differences in white blood cell populations. […]
Not all white blood cell populations are immunogenic. […] To better understand if the changes observed would have a net immunogenic or immunosuppressive effect, ratios of different cell populations were calculated (FIG. 9).

live tumor cells = assay: vaccination experiment with live tumor cell challenge; format: in vivo, mice; details: vaccine from agent-killed cells
Description: FIG. 4 illustrates the survival advantage conferred when different vaccines are given to mice before being challenged with a live tumor cell injection. Vaccines are composed of dead and dying cancer cells of the same cell line exposed to different anti-cancer agents, killed by exposure to different agents.
The “gold standard” for ICD validation is a vaccine experiment, where mice are injected with dead cell material generated by exposing cells to an anticancer agent. Importantly, the anti-cancer agent is removed, and the mice are only injected with the dead and dying cells. Subsequently, after 1-2 weeks, mice are then challenged with an injection of live tumor cells of the same type used to create the vaccine.
This vaccination experiment was conducted using four different treatment groups, one unvaccinated negative control, and three receiving vaccines from the use of different agents: cisplatin (a negative control, non-ICD inducer), mitoxantrone (a positive control ICD inducer), and PT-112 (the experimental arm) (FIG. 4). The vast majority of mice (80-90%) in both negative control groups developed tumors rapidly (within one week).

[13] = data from the literature; cited from earlier work

SMILES: O=P1(O)OP(=O)(O)[O][Pt]2([NH][C@@H]3CCCC[C@H]3[NH]2)[O]1 (stereo partly drawn) [PT-112, trans-(R,R)-1,2-cyclohexanediamine(pyrophosphato) platinum(II)]
- IC50 values compared with cis, carbo and oxali [1]: superior to cis, carboplatin (carbo), and oxali in a majority of cell lines
- effect on induction of Ku70 [2]: minimal effect
- effect on the phosphorylation of H2AX [2]: minimal effect
- potency difference between NER-deficient and NER-proficient HCT116 cells [3]: did not differ significantly
- impact on p53 and MDM2 levels (p53 and MDM2): noteworthy impact
- effects indicative of ICD induction (release of HMGB1 and ATP, cell surface exposure of CRT, suppression of STATS) [4]: significantly greater extent than oxali
- Pt accumulation in DNA and whole cell extracts (cancer cell models): significantly less Pt accumulation
- response at higher doses [5]: Cases of complete response were observed
- tumor growth (CXF280 colon PDX): Sustained tumor growth delay
- tumor growth [6]: Sustained tumor growth delay
- fraction of Pt in the plasma ultrafiltrate (PUF) relative to total plasma Pt [7]: 72.8%
- stability in plasma (parent by LC-MS/MS) [7]: stability of PT-112 in plasma
- tolerated concentration relative to cis ([8]; rats): 7 fold
- effects on renal function (creatinine, BUN and GFR) ([8]; rats, PT-112 at 7-fold higher concentrations than cis): minimal effects
- cold hypersensitivity [9]: indistinguishable from untreated controls
- accumulation of Pt in dorsal root ganglia (DRG) nerve tissue [10]: minimal accumulation
- nerve conduction velocity (NCV) [10]: no significant loss
- HMGB1 release into the media [11]: significantly higher
- anti-CRT antibody staining (cell surface CRT) [12]: greater effect
- release of ATP into the media (murine TSA cells): robust release of ATP
- changes in cytotoxic T cell (CD8+) and helper T cell (CD4+) populations in tumor (CT26 cells): large changes
- ratio of immunogenic to immunosuppressive T cell populations (CT26 cells): favorable changes
- changes in white blood cell populations incl. cytotoxic T cells (CD8+) and helper T cells (CD4+) in tumor (MC38 cells; MC38, 2 weeks, PT-112 90 mg/kg QW, PD-L1 10 mg/kg BIW, FACS): large changes
- ratios of helper T cells and cytotoxic T cells to regulatory T cells (MC38 cells; MC38, FACS): positive effects

SMILES: N.N.[Cl][Pt][Cl] [cisplatin, reference compound]
- potency difference between NER-deficient and NER-proficient HCT116 cells [3]: NER-competent cells were less sensitive
- effects on renal function (creatinine, BUN and GFR) ([8]; rat, in vivo): caused morbidity
- mice that developed tumors (live tumor cells; within one week): 80-90%

SMILES: O=C1c2c(O)ccc(O)c2C(=O)c2c(NCCNCCO)ccc(NCCNCCO)c21 [mitoxantrone]
- mice remaining tumor free (live tumor cells; PT-112 group for over one month): 40%

SMILES: O=C1[O][Pt]2([NH][C@@H]3CCCC[C@H]3[NH]2)[O]C1=O [oxaliplatin, reference compound]
- nerve conduction velocity (NCV) [10]: dose-dependent declines
- HMGB1 release into the media [11]: elevated levels of HMGB1 in the media versus untreated control cells
- anti-CRT antibody staining (cell surface CRT) [12]: enhanced staining relative to control
- fraction of Pt in the plasma ultrafiltrate (PUF) [13]: 28.2%
